Source: patent publication US20230077362A1 (CORTEVA AGRISCIENCE LLC, priority 2019, published 2023)
Read-outs that look alike come from different tables or passages of the source.

Assays:
[1] = test system: Beet Armyworm (Spodoptera exigua) ("BAW"), second instar larvae; assay: Bioassay on beet armyworm (BAW), 128-well diet tray assay; type: in vivo; details: for pest or weed control at 50 µg/cm2: Spodoptera exigua; for BAW (Biological Results, rating): Beet Armyworm (Spodoptera exigua), C = Not Tested; for BAW rating: C = not tested, D = no activity noticed
Method in brief: (§1)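 Each value represents average percent mortality from eight wells. Larvae were kept in clear-covered trays at 25° C. for five to seven days on a 14-hour light, 10-hour dark schedule before scoring.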

[2] = test system: Cabbage Looper (Trichoplusia ni) ("CL"), second instar larvae; assay: Bioassay on cabbage looper (CL), 128-well diet tray assay; type: in vivo; details: for CL (Biological Results, rating): Cabbage Looper (Trichoplusia ni), C = Not Tested; for CL rating: C = not tested, D = no activity noticed
Method in brief: as §1

[3] = read-out: BAW (Biological Results, rating)
[4] = Trichoplusia ni, read-out: CL (Biological Results, rating)
[5] = Trichoplusia ni, read-out: CL rating

Cc1ccc(COCC(F)(F)F)c(N2C(=O)CS/C2=N\C(=O)Nc2ccc(-c3ncn(-c4ccc(OC(F)(F)F)cn4)n3)cc2Cl)c1 [Compound J249, (Z)-1-(2-Chloro-4-(1-(5-(trifluoromethoxy)pyridin-2-yl)-1H-1,2,4-triazol-3-yl)phenyl)-3-(3-(5-methyl-2-((2,2,2-trifluoroethoxy)methyl)phenyl)-4-oxothiazolidin-2-ylidene)urea]
pest or weed control at 50 µg/cm2 [1, 3]: 50 to 100%
pest or weed control at 50 µg/cm2 [2, 4]: 50 to 100%

CCCc1ccc(C)cc1N1C(=O)CS/C1=N\C(=O)Nc1ccc(-c2ncn(-c3ccc(S(F)(F)(F)(F)F)cc3)n2)cc1C(F)(F)F [Compound J628, (Z)-1-(3-(5-Methyl-2-propylphenyl)-4-oxothiazolidin-2-ylidene)-3-(4-(1-(4-(pentafluoro-λ^6-sulfaneyl)phenyl)-1H-1,2,4-triazol-3-yl)-2-(trifluoromethyl)phenyl)urea]
pest or weed control at 50 µg/cm2 ([1]; read-out: BAW rating): 50 to 100%
pest or weed control at 50 µg/cm2 [2, 5]: 50 to 100%

CCC(C)c1ccc(C)cc1N1C(=O)CS/C1=N\C(=O)Nc1ccc(-c2ncn(-c3ccc(C(F)(F)F)cc3)n2)cc1F (stereo not drawn) [Compound J65, (Z)-1-(3-(2-(sec-Butyl)-5-methylphenyl)-4-oxothiazolidin-2-ylidene)-3-(2-fluoro-4-(1-(4-(trifluoromethyl)phenyl)-1H-1,2,4-triazol-3-yl)phenyl)urea]
pest or weed control at 50 µg/cm2 [1, 3]: 50 to 100%
pest or weed control at 50 µg/cm2 [2, 4]: 50 to 100%

COCc1ccc(C)cc1N1C(=O)CS/C1=N\C(=O)Nc1ccc(-c2ncn(-c3ccc(C(F)F)cn3)n2)cc1F [Compound J345]
BAW (Biological Results, rating) [1]: A (50-100)
CL (Biological Results, rating) [2]: A (50-100)

Cc1ccc(-n2cnc(-c3ccc(NC(=O)/N=C4\SCC(=O)N4c4cc(N(C)C)ccc4C(C)C)c(F)c3)n2)cc1 [Compound J150, (Z)-1-(3-(5-(Dimethylamino)-2-isopropylphenyl)-4-oxothiazolidin-2-ylidene)-3-(2-fluoro-4-(1-(p-tolyl)-1H-1,2,4-triazol-3-yl)phenyl)urea]
pest or weed control at 50 µg/cm2 [1, 3]: 50 to 100%
pest or weed control at 50 µg/cm2 [2, 4]: 50 to 100%

CC(C)c1ccc(N(C)C)cc1N1C(=O)CS/C1=N\C(=O)Nc1ccc(-c2ncn(-c3ccc(C(F)(F)F)cn3)n2)cc1 [Compound J339]
BAW (Biological Results, rating) [1]: A (50-100)
CL (Biological Results, rating) [2]: A (50-100)

N#Cc1ccc(OCCC(F)(F)F)c(N2C(=O)CS/C2=N\C(=O)Nc2ccc(-c3ncn(-c4ccc([S+]([O-])C(F)(F)F)cc4)n3)cc2F)c1 (stereo not drawn) [Compound J385, (Z)-1-(3-(5-Cyano-2-(3,3,3-trifluoropropoxy)phenyl)-4-oxothiazolidin-2-ylidene)-3-(2-fluoro-4-(1-(4-((trifluoromethyl)sulfinyl)phenyl)-1H-1,2,4-triazol-3-yl)phenyl)urea]
pest or weed control at 50 µg/cm2 ([1]; read-out: BAW rating): 50 to 100%
pest or weed control at 50 µg/cm2 [2, 5]: 50 to 100%

Cc1ccc(COCCF)c(N2C(=O)CS/C2=N\C(=O)Nc2ccc(-c3ncn(-c4ccc(S(F)(F)(F)(F)F)cc4)n3)cc2F)c1 [Compound J552]
pest or weed control at 50 µg/cm2 ([1]; read-out: BAW rating): 50 to 100%
pest or weed control at 50 µg/cm2 [2, 5]: 50 to 100%

Cc1ccc(OCC(F)(F)F)c(N2C(=O)CS/C2=N\C(=O)Nc2ccc(-c3cn(-c4ccc(S(F)(F)(F)(F)F)cc4)cn3)cc2F)c1 [Compound J596, (Z)-1-(2-Fluoro-4-(1-(4-(pentafluoro-λ^6-sulfaneyl)phenyl)-1H-imidazol-4-yl)phenyl)-3-(3-(5-methyl-2-(2,2,2-trifluoroethoxy)phenyl)-4-oxothiazolidin-2-ylidene)urea]
pest or weed control at 50 µg/cm2 ([1]; read-out: BAW rating): 50 to 100%
pest or weed control at 50 µg/cm2 [2, 5]: 50 to 100%

Cc1ccc(C(F)(F)F)c(N2C(=O)CS/C2=N\C(=O)Nc2ccc(-c3ncn(-c4ccc(OC(F)(F)F)cc4)n3)cc2C#N)c1 [Compound J244, (Z)-1-(2-Cyano-4-(1-(4-(trifluoromethoxy)phenyl)-1H-1,2,4-triazol-3-yl)phenyl)-3-(3-(5-methyl-2-(trifluoromethyl)phenyl)-4-oxothiazolidin-2-ylidene)urea]
pest or weed control at 50 µg/cm2 [1, 3]: 50 to 100%
pest or weed control at 50 µg/cm2 [2, 4]: 50 to 100%

Cc1ccc(N2C(=O)CS/C2=N\C(=O)Nc2ccc(-c3ncn(-c4ccc(C(F)(F)F)cn4)n3)cc2F)c(COCC(F)(F)F)c1 [Compound J451]
BAW rating ([1]; Table ABC, species BAW): A (50-100)
CL rating ([2]; Table ABC, species CL): A (50-100)

CCCc1ccc(N(C)C)cc1N1C(=O)CS/C1=N\C(=O)Nc1ccc(-c2ncn(-c3ccc([S+]([O-])C(F)(F)F)cc3)n2)cc1F (stereo not drawn) [Compound J383, (Z)-1-(3-(5-(Dimethylamino)-2-propylphenyl)-4-oxothiazolidin-2-ylidene)-3-(2-fluoro-4-(1-(4-((trifluoromethyl)sulfinyl)phenyl)-1H-1,2,4-triazol-3-yl)phenyl)urea]
pest or weed control at 50 µg/cm2 ([1]; read-out: BAW rating): 50 to 100%
pest or weed control at 50 µg/cm2 [2, 5]: 50 to 100%

CCOCc1ccc(C)cc1N1C(=O)CS/C1=N\C(=O)Nc1ccc(-c2ncn(-c3ccc(C(F)(F)C(F)(F)F)cc3)n2)cc1C [Compound J796, (Z)-1-(3-(2-(Ethoxymethyl)-5-methylphenyl)-4-oxothiazolidin-2-ylidene)-3-(2-methyl-4-(1-(4-(perfluoroethyl)phenyl)-1H-1,2,4-triazol-3-yl)phenyl)urea]
BAW rating (% control or mortality class) ([1]; Table ABC, species BAW, 128-well diet tray assay, second instar larvae): A (50-100)
mortality at 50 µg/cm2 ([2]; Trichoplusia ni, Table ABC, species CL, 128-well diet tray assay, second instar larvae, read-out: CL rating (% control or mortality class)): 50 to 100%

Cc1ccc(COCC(F)(F)F)c(N2C(=O)CS/C2=N\C(=O)Nc2ccc(-c3ncn(-c4cccc(OC(F)(F)F)c4)n3)cc2C)c1 [Compound J722]
BAW rating ([1]; Table ABC, species BAW): A (50-100)
CL rating ([2]; Table ABC, species CL): A (50-100)

CCCc1ccc(C)cc1N1C(=O)CS/C1=N\C(=O)Nc1ccc(-c2ncn(-c3ccc(N(C(=O)OC)C(F)(F)F)cc3)n2)cc1F [Compound J783, Methyl (Z)-(4-(3-(3-fluoro-4-(3-(3-(5-methyl-2-propylphenyl)-4-oxothiazolidin-2-ylidene)ureido)phenyl)-1H-1,2,4-triazol-1-yl)phenyl)(trifluoromethyl)carbamate]
pest or weed control at 50 µg/cm2 ([1]; read-out: BAW rating): 50 to 100%
pest or weed control at 50 µg/cm2 [2, 5]: 50 to 100%

CC(C)c1ccc(N(C)C)cc1N1C(=O)CS/C1=N\C(=O)Nc1ccc(-c2cn(-c3ccc(C(F)(F)F)cc3)cn2)cc1 [Compound J515, (Z)-1-(3-(5-(Dimethylamino)-2-isopropylphenyl)-4-oxothiazolidin-2-ylidene)-3-(4-(1-(4-(trifluoromethyl)phenyl)-1H-imidazol-4-yl)phenyl)urea]
pest or weed control at 50 µg/cm2 ([1]; read-out: BAW rating): 50 to 100%
pest or weed control at 50 µg/cm2 [2, 5]: 50 to 100%

Cc1ccc(COCC(F)(F)F)c(N2C(=O)CS/C2=N\C(=O)Nc2ccc(-n3cnc(-c4ccc(OC(F)(F)F)cc4)n3)cc2F)c1 [Compound J689, (Z)-1-(2-Fluoro-4-(3-(4-(trifluoromethoxy)phenyl)-1H-1,2,4-triazol-1-yl)phenyl)-3-(3-(5-methyl-2-((2,2,2-trifluoroethoxy)methyl)phenyl)-4-oxothiazolidin-2-ylidene)urea]
pest or weed control at 50 µg/cm2 ([1]; read-out: BAW rating): 50 to 100%
pest or weed control at 50 µg/cm2 [2, 5]: 50 to 100%

CCCN(CCC)c1ccc(C(C)C)c(N2C(=O)CS/C2=N\C(=O)Nc2ccc(-c3ncn(-c4ccc(OC(F)(F)F)cc4)n3)cc2CC)c1 [Compound J161, (Z)-1-(3-(5-(Dipropylamino)-2-isopropylphenyl)-4-oxothiazolidin-2-ylidene)-3-(2-ethyl-4-(1-(4-(trifluoromethoxy)phenyl)-1H-1,2,4-triazol-3-yl)phenyl)urea]
pest or weed control at 50 µg/cm2 [1, 3]: 50 to 100%
pest or weed control at 50 µg/cm2 [2, 4]: 0 to 50%

CCN(CC)c1ccc(C(C)C)c(N2C(=O)CS/C2=N\C(=O)Nc2ccc(-c3ncn(-c4ccc(OC(F)(F)F)cc4)n3)cc2F)c1 [Compound J69, (Z)-1-(3-(5-(diethylamino)-2-isopropylphenyl)-4-oxothiazolidin-2-ylidene)-3-(2-fluoro-4-(1-(4-(trifluoromethoxy)phenyl)-1H-1,2,4-triazol-3-yl)phenyl)urea]
pest or weed control at 50 µg/cm2 [1, 3]: 50 to 100%
pest or weed control at 50 µg/cm2 [2, 4]: 50 to 100%

CCCOCc1ccc(C)cc1N1C(=O)CS/C1=N\C(=O)Nc1ccc(-c2ncn(-c3ccc(OC(F)(F)F)cc3)n2)cc1C [Compound J546]
BAW rating ([1]; Table ABC, species BAW): A (50-100)
CL rating ([2]; Table ABC, species CL): A (50-100)

COC(C)c1ccc(C)cc1N1C(=O)CS/C1=N\C(=O)Nc1ccc(-c2ccn(-c3ccc(C(F)(F)F)cn3)n2)cc1F (stereo not drawn) [Compound J309, (Z)-1-(2-Fluoro-4-(1-(5-(trifluoromethyl)pyridin-2-yl)-1H-pyrazol-3-yl)phenyl)-3-(3-(2-(1-methoxyethyl)-5-methylphenyl)-4-oxothiazolidin-2-ylidene)urea]
pest or weed control at 50 µg/cm2 [1, 3]: 50 to 100%
pest or weed control at 50 µg/cm2 [2, 4]: 50 to 100%

Cc1ccc(C(C)C)c(N2C(=O)CS/C2=N\C(=O)Nc2ccc(-c3ncn(-c4ccc(OC(F)(F)F)cn4)n3)cc2C#N)c1 [Compound J259, (Z)-1-(2-Cyano-4-(1-(5-(trifluoromethoxy)pyridin-2-yl)-1H-1,2,4-triazol-3-yl)phenyl)-3-(3-(2-isopropyl-5-methylphenyl)-4-oxothiazolidin-2-ylidene)urea]
pest or weed control at 50 µg/cm2 [1, 3]: 50 to 100%
pest or weed control at 50 µg/cm2 [2, 4]: 50 to 100%

Cc1ccc(COCC(F)F)c(N2C(=O)CS/C2=N\C(=O)Nc2ccc(-c3nnn(-c4ccc(OC(F)(F)F)cc4)n3)cc2)c1 [Compound J768, (Z)-1-(3-(2-((2,2-Difluoroethoxy)methyl)-5-methylphenyl)-4-oxothiazolidin-2-ylidene)-3-(4-(2-(4-(trifluoromethoxy)phenyl)-2H-tetrazol-5-yl)phenyl)urea]
pest or weed control at 50 µg/cm2 ([1]; read-out: BAW rating): 50 to 100%
pest or weed control at 50 µg/cm2 [2, 5]: 50 to 100%

COC(C)c1ccc(C)cc1N1C(=O)CS/C1=N\C(=O)Nc1ccc(-c2ncn(-c3ccc(C(F)(F)F)cn3)n2)cc1F (stereo not drawn) [Compound J280, (Z)-1-(2-Fluoro-4-(1-(5-(trifluoromethyl)pyridin-2-yl)-1H-1,2,4-triazol-3-yl)phenyl)-3-(3-(2-(1-methoxyethyl)-5-methylphenyl)-4-oxothiazolidin-2-ylidene)urea]
pest or weed control at 50 µg/cm2 [1, 3]: 50 to 100%
pest or weed control at 50 µg/cm2 [2, 4]: 50 to 100%
